Among the data in patent publication US12263171B2, “7-, 8-, and 10-substituted amino triazolo quinazoline derivatives as adenosine receptor antagonists, pharmaceutical compositions and their use” (Merck Sharp & Dohme LLC, priority 2018, dated 2025) are IC50 values, retold here.

The target of assay [1] is human A2a adenosine receptor (Homo sapiens (Human), UniProt P29274). In words: A2a receptor affinity radioligand binding assay ([3H] SCH58261, membranes from HEK293 or CHO cells). As to conditions: unstarred values: radioligand binding. The procedure, abridged: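 Displacement of tritiated SCH58261 (working dilution 4 nM) from recombinant human A2a receptor membranes (HEK293 or CHO), 60 min at room temperature in Tris pH 7.4/MgCl2 buffer after 15–30 min compound preincubation. Scintillation counting after filtration; normalized percent effect fitted 4-parameter logistic for IC50.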

In assay [2] the target is human A2b adenosine receptor (Homo sapiens (Human), UniProt P29275). In words: A2b radioligand filtration binding assay (tritiated proprietary A2b antagonist, HEK293 membranes). The note with it: unstarred values: radioligand binding. The procedure, abridged:
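Displacement of a tritiated proprietary A2b antagonist from membranes of HEK293 cells recombinantly expressing human A2b receptor, measured by filtration and scintillation counting. Percent effect was normalized to total and non-specific binding and fitted with a 4-parameter logistic to give IC50.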

Chain of human A2a adenosine receptor (P29274 whole entry): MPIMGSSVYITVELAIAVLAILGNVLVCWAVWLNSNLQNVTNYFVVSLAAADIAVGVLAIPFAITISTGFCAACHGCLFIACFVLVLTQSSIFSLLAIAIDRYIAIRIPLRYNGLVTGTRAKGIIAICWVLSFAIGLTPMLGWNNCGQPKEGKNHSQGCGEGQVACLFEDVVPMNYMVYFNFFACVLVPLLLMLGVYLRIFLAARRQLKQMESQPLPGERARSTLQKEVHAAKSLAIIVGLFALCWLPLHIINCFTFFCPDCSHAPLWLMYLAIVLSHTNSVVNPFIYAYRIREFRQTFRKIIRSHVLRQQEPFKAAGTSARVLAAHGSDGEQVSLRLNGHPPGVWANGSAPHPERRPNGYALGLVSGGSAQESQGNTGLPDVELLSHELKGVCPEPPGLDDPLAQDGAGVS
Chain of human A2b adenosine receptor (P29275 whole entry): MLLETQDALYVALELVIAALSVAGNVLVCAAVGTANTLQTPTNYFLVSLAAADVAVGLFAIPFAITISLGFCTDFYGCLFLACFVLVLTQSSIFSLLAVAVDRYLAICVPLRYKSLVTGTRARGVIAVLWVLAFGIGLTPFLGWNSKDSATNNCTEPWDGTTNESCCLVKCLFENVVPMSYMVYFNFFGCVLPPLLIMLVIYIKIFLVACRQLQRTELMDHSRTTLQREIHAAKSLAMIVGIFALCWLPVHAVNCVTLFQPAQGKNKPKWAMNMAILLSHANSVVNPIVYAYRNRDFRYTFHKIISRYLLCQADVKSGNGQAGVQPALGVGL

As a reminder, the IC50 is the concentration that inhibits the measured activity by half. A lower IC50 goes with greater potency. On to `COc1cccc2c1nc(N)n1nc([C@@H]3CCCN(c4nn(CC(C)(C)O)cc4C(F)(F)F)C3)nc21` [Example 62, (R)-1-(3-(3-(5-amino-7-methoxy-[1,2,4]triazolo[1,5-c]quinazolin-2-yl)piperidin-1-yl)-4-(trifluoromethyl)-1H-pyrazol-1-yl)-2-methylpropan-2-ol], for which the IC50 in assay [1] stood at 0.3 nM; in assay [2], 631 nM.

Regarding `COc1cccc2c1nc(N)n1nc([C@@H]3CCCN(c4ncn(CC(C)(C)O)n4)C3)nc21` [Example 64, (R)-1-(3-(3-(5-amino-7-methoxy[1,2,4]triazolo[1,5-c]quinazolin-2-yl)piperidin-1-yl)-1H-1,2,4-triazol-1-yl)-2-methylpropan-2-ol], the figures for the IC50 in assay [1] and in assay [2] were 0.1 nM and 374 nM, respectively.

As for `COc1cccc2c1nc(N)n1nc([C@@H]3CCCN(c4ccn(C)n4)C3)nc21` [Example 66, (R)-7-methoxy-2-(1-(1-methyl-1H-pyrazol-3-yl)piperidin-3-yl)-[1,2,4]triazolo[1,5-c]quinazolin-5-amine], the values for the IC50 in assay [1] and in assay [2] were 0.7 nM and 144 nM, respectively.

With `COc1cccc2c1nc(N)n1nc([C@@H]3CCCN(c4cn(C)nn4)C3)nc21` [Example 67, (R)-7-methoxy-2-(1-(1-methyl-1H-1,2,3-triazol-4-yl)piperidin-3-yl)-[1,2,4]triazolo[1,5-c]quinazolin-5-amine], the IC50 in assay [1] amounted to 1 nM; in assay [2] it was 2 nM.

Turning to `COc1cccc2c1nc(N)n1nc([C@@H]3CCCN(c4ncn(C5CCOCC5)n4)C3)nc21` [Example 68, (R)-7-methoxy-2-(1-(1-(tetrahydro-2H-pyran-4-yl)-1H-1,2,4-triazol-3-yl)piperidin-3-yl)-[1,2,4]triazolo[1,5-c]quinazolin-5-amine], the IC50 in assay [1] is 0.3 nM; in assay [2], 340 nM.

`COc1cccc2c1nc(N)n1nc([C@@H]3CCCN(c4ncn(CC(F)(F)F)n4)C3)nc21` [Example 69, (R)-7-methoxy-2-(1-(1-(2,2,2-trifluoroethyl)-1H-1,2,4-triazol-3-yl)piperidin-3-yl)-[1,2,4]triazolo[1,5-c]quinazolin-5-amine]: the half-maximal inhibitory concentration (IC50) in assay [1] came to 0.6 nM; in assay [2], 144 nM.

For `COc1cccc2c1nc(N)n1nc([C@@H]3CCCN(c4nn(C)nc4C)C3)nc21` [Example 70, (R)-2-(1-(2,5-dimethyl-2H-1,2,3-triazol-4-yl)piperidin-3-yl)-7-methoxy-[1,2,4]triazolo[1,5-c]quinazolin-5-amine], the IC50 is 0.8 nM in assay [1] and 151 nM in assay [2].

On to `COc1cccc2c1nc(N)n1nc([C@@H]3CCCN(c4nnc5n4CCNC5)C3)nc21` [Example 71, (R)-7-methoxy-2-(1-(5,6,7,8-tetrahydro-[1,2,4]triazolo[4,3-a]pyrazin-3-yl)piperidin-3-yl)-[1,2,4]triazolo[1,5-c]quinazolin-5-amine], for which the IC50 in assay [1] stood at 0.2 nM; in assay [2], 5610 nM.

For `COc1cccc2c1nc(N)n1nc([C@@H]3CCCN(c4cnn(C5CCOCC5)n4)C3)nc21` [Example 72, (R)-7-methoxy-2-(1-(2-(tetrahydro-2H-pyran-4-yl)-2H-1,2,3-triazol-4-yl)piperidin-3-yl)-[1,2,4]triazolo[1,5-c]quinazolin-5-amine], the results for the 50% inhibitory concentration (IC50) in assay [1] and in assay [2] were 0.9 nM and 119 nM, respectively.

Regarding `COc1cccc2c1nc(N)n1nc([C@@H]3CCCN(c4cn(CC(F)(F)F)nn4)C3)nc21` [Example 73, (R)-7-methoxy-2-(1-(1-(2,2,2-trifluoroethyl)-1H-1,2,3-triazol-4-yl)piperidin-3-yl)-[1,2,4]triazolo[1,5-c]quinazolin-5-amine], the IC50 in assay [1] turned out to be 0.8 nM; in assay [2], 1.9 nM.

For the compound `COc1cccc2c1nc(N)n1nc([C@@H]3CCCN(c4cc(C)n(C)n4)C3)nc21` [Example 74, (R)-2-(1-(1,5-dimethyl-1H-pyrazol-3-yl)piperidin-3-yl)-7-methoxy-[1,2,4]triazolol[1,5-c]quinazolin-5-amine], the 50% inhibitory concentration (IC50) in assay [1] stood at 1 nM; in assay [2] it was 3.1 nM.

For the compound `COc1cccc2c1nc(N)n1nc([C@@H]3CCCN(c4cnn(C)n4)C3)nc21` [Example 75, (R)-7-methoxy-2-(1-(2-methyl-2H-1,2,3-triazol-4-yl)piperidin-3-yl)-[1,2,4]triazolo[1,5-c]quinazolin-5-amine], the IC50 in assay [1] amounted to 1 nM; in assay [2], 11.6 nM.

For the compound `COc1cccc2c1nc(N)n1nc([C@@H]3CCCN(c4cn(C)cn4)C3)nc21` [Example 76, (R)-7-methoxy-2-(1-(1-methyl-1H-imidazol-4-yl)piperidin-3-yl)-[1,2,4]triazolo[1,5-c]quinazolin-5-amine], the IC50 amounted to 3.6 nM in assay [1] and 1780 nM in assay [2].

In the case of `COc1cccc2c1nc(N)n1nc([C@@H]3CCCN(c4nccn4C)C3)nc21` [Example 81, (R)-7-methoxy-2-(1-(1-methyl-1H-imidazol-2-yl)piperidin-3-yl)-[1,2,4]triazolo[1,5-c]quinazolin-5-amine], the results for the half-maximal inhibitory concentration (IC50) in assay [1] and in assay [2] were 1.4 nM and 813 nM, respectively.

Consider `COc1cccc2c1nc(N)n1nc([C@@H]3CCCN(c4ccn(C)c(=O)c4)C3)nc21` [Example 87, (R)-4-(3-(5-amino-7-methoxy-[1,2,4]triazolo[1,5-c]quinazolin-2-yl)piperidin-1-yl)-1-methylpyridin-2(1H)-one], for which the half-maximal inhibitory concentration (IC50) in assay [1] stood at 1.5 nM; in assay [2] it was 858 nM.

For `COc1cccc2c1nc(N)n1nc([C@@H]3CCCN(c4ccc(=O)n(C)c4)C3)nc21` [Example 88, (R)-5-(3-(5-amino-7-methoxy-[1,2,4]triazolo[1,5-c]quinazolin-2-yl)piperidin-1-yl)-1-methylpyridin-2(1H)-one], the values for the IC50 in assay [1] and in assay [2] were 2 nM and 295 nM, respectively.

Turning to `COc1cccc2c1nc(N)n1nc([C@@H]3CCCN(c4ccc(=O)n(C(F)F)c4)C3)nc21` [Example 92, (R)-5-(3-(5-amino-7-methoxy-[1,2,4]triazolo[1,5-c]quinazolin-2-yl)piperidin-1-yl)-1-(difluoromethyl)pyridin-2(1H)-one], the IC50 was determined as 0.7 nM in assay [1] and 196 nM in assay [2].

As for `COc1cccc2c1nc(N)n1nc([C@@H]3CCCN(c4cc(C)c(=O)n(C)c4)C3)nc21` [Example 93], the values for the IC50 in assay [1] and in assay [2] were 1.5 nM and 229 nM, respectively.

Consider `COc1cccc2c1nc(N)n1nc([C@@H]3CCCN(c4ccc(=O)n(C(C)C)c4)C3)nc21` [Example 96, (R)-5-(3-(5-amino-7-methoxy-[1,2,4]triazolo[1,5-c]quinazolin-2-yl)piperidin-1-yl)-1-isopropylpyridin-2(1H)-one], for which the IC50 in assay [1] was determined as 0.6 nM; in assay [2], 291 nM.

Take `COc1cccc2c1nc(N)n1nc([C@@H]3CCCN(c4ccc(=O)n(C)n4)C3)nc21` [Example 98, (R)-6-(3-(5-amino-7-methoxy-[1,2,4]triazolo[1,5-c]quinazolin-2-yl)piperidin-1-yl)-2-methylpyridazin-3(2H)-one]: the IC50 in assay [1] stood at 1.4 nM; in assay [2], 691 nM.

With `COc1cccc2c1nc(N)n1nc([C@@H]3CCCN(c4cc(C(F)(F)F)c(=O)n(C)c4)C3)nc21` [Example 99, (R)-5-(3-(5-amino-7-methoxy-[1,2,4]triazolo[1,5-c]quinazolin-2-yl)piperidin-1-yl)-1-methyl-3-(trifluoromethyl)pyridin-2(1H)-one], the half-inhibitory concentration (IC50) in assay [1] was 0.6 nM; in assay [2], 98.4 nM.
